# Test results as given in patent publication US12195490B2, “STRAD-binding agents and uses thereof” (The Regents of the University of California, priority 2020, dated 2025).
# How the values were obtained:
# [1] = target: T1, LKB1 (Homo sapiens, UniProt Q15831+Q7RTN6); assay: LKB1 kinase assay with recombinant LKB1 (LKB1 in vitro activation); format: biochemical
# T1 sequence (Q15831 1-433): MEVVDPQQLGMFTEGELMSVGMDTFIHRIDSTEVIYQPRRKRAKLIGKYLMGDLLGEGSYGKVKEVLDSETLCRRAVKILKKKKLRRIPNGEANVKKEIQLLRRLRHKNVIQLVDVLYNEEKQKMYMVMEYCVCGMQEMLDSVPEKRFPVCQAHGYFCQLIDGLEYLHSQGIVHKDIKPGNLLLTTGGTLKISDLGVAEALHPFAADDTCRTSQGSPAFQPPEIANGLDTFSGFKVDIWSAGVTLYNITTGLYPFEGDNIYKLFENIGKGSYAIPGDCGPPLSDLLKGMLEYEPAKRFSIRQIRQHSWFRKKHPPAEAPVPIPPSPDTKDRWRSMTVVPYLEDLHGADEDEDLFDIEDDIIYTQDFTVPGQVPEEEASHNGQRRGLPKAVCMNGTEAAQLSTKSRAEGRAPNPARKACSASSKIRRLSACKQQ
# T1 sequence (Q7RTN6 1-431): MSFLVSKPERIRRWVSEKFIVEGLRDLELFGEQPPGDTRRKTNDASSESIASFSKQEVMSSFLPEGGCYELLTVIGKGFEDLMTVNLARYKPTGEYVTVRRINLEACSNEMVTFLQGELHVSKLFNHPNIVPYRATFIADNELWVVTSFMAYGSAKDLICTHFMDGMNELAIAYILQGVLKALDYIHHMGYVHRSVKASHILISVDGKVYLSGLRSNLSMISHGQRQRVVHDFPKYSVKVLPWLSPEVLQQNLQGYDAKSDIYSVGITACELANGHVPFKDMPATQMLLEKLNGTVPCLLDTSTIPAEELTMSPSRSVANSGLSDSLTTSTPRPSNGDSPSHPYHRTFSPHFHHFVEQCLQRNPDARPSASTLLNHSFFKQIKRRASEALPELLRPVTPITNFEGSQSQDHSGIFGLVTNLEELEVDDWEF
# T1 sequence (Q9Y376 1-341 partner): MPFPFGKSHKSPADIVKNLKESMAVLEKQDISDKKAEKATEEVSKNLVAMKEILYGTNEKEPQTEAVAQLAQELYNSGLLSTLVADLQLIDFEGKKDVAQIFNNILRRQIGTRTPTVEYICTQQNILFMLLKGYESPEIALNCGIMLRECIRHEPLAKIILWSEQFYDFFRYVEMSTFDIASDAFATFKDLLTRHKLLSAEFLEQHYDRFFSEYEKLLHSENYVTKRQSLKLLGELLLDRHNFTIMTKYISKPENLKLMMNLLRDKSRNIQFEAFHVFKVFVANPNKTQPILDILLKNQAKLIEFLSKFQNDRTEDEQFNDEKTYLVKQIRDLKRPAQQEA
# From the text: Screening in human cancer cell lines has identified cell lines responsive to LKB1 activation and predictive biomarkers for compound development have been determined. Installation of a novel polar functionality specifically designed to target STRAD's unique phosphate-binding residues led to the identification of compound SU-329 which is currently progressing through efficacy models evaluating tumor growth inhibition. The terms SU-329 and SU20668-0329-01 refer to the same compound.
# Small Molecule Activation of the LKB1 Tumor Suppressor. Cancer treatment has been considerably advanced by the relatively recent development of small molecules capable of inhibiting oncogenic kinase signaling, but exogenous enhancement of tumor suppressive signaling remains elusive. Here, we sought to design small molecules capable of activating the tumor suppressor kinase LKB1. Designing compounds capable of increasing kinase activity has been more structurally challenging than those aimed at inhibiting them: apart from the ATP-binding pocket, there is rarely a site that would be conducive to binding a small molecule. Unlike most protein kinases, LKB1 signals as part of an obligate trimer consisting of itself, a scaffolding protein (MO25), and a pseudokinase (STRAD). As part of its mechanism of activation, LKB1 must bind to an ATP-bound STRAD to take on its active kinase conformation. […]
# [2] = test system: ACHN cell line; assay: Drug screen of the SelleckChem kinase inhibitor library with and without SU-329, Cell-Titer Glo after 5 days; format: cell-based; details: kinase inhibitors 200 nM with and without 5 μM SU-329
# Description: FIG. 8. Drug screen identifies signaling pathways that affect the impact of LKB1 activation. Drug screen of the SelleckChem kinase inhibitor library was performed in the ACHN cell line. Sensitivity to kinase inhibitors used at 200 nM with and without 5 μM of SU-329 was measured after 5 days with Cell-Titer Glo. […] The terms SU-329 and SU20668-0329-01 refer to the same compound.
# [3] = target: T1, LKB1; assay: in vitro LKB1 functional activity; format: biochemical; details: APA analogs
# [4] = test system: most sensitive cancer cell line; assay: cell activity: CTG anti-proliferation in most sensitive cancer cell line; format: cell-based; details: APA analogs
Compound,LKB1 % Act. Increase [3],IC50 [4],LKB1 in vitro activation [1],response of LKB1 stimulation under inhibition of GSK-3 [2],response of LKB1 stimulation under inhibition of mTOR and components of the PI3K [2]
COP(=O)(CS(=O)(=O)c1ccc(NC(=O)c2nc(-c3ccc(C)cc3)cnc2N)cc1)OC [SU-329],,,Single digit micro-molar,reduced the response of LKB1 stimulation,attenuated the response of LKB1 stimulation
"CCO[P@](=O)(CC)CS(=O)(=O)c1ccc(NC(=O)c2nc(-c3ccc(C)cc3)cnc2N)cc1 [SU20668-0521, (R)-ethyl (4-(3-amino-6-p-tolylpyrazine-2-carboxamido)phenylsulfonyl)methyl(ethyl)phosphinate]",A (A=>4000%),< 3000 nM,,,
"CCOP(C)(=O)CS(=O)(=O)c1ccc(NC(=O)c2nc(-c3ccc(C)cc3)cnc2N)cc1 (centres unmarked) [SU20668-0472, ethyl (4-(3-amino-6-p-tolylpyrazine-2-carboxamido)phenylsulfonyl)methyl(methyl)phosphinate]",A (A=>4000%),< 3000 nM,,,
"CO[P@](C)(=O)CS(=O)(=O)c1ccc(NC(=O)c2nc(-c3ccc(C)cc3)cnc2N)cc1 [SU20668-0520, (S)-methyl (4-(3-amino-6-p-tolylpyrazine-2-carboxamido)phenylsulfonyl)methyl(methyl)phosphinate]",A (A=>4000%),< 3000 nM,,,

# The next lines start with results.
LKB1 % Act. Increase [3],IC50 [4],Compound,LKB1 in vitro activation [1],response of LKB1 stimulation under inhibition of GSK-3 [2],response of LKB1 stimulation under inhibition of mTOR and components of the PI3K [2]
C (C=199-1000%),3000 to 50000 nM,"CC(=O)NS(=O)(=O)c1ccc(NC(=O)c2nc(-c3ccc(C)s3)cnc2N)cc1 [SU20668-0349, N-(4-(N-acetylsulfamoyl)phenyl)-3-amino-6-(5-methylthiophen-2-yl)pyrazine-2-carboxamide]",,,
A (A=>4000%),3000 to 50000 nM,"CC(=O)NS(=O)(=O)c1ccc(NC(=O)c2nc(-c3cc(F)ccc3C#N)cnc2N)cc1 [SU20668-0371, N-(4-(N-acetylsulfamoyl)phenyl)-3-amino-6-(2-cyano-5-fluorophenyl)pyrazine-2-carboxamide]",,,
B (B=399-2000%),< 3000 nM,"Cc1ccc(-c2cnc(N)c(C(=O)Nc3ccc(S(N)(=O)=O)cc3)n2)cc1 [SU20668-0197, 3-amino-N-(4-sulfamoylphenyl)-6-p-tolylpyrazine-2-carboxamide]",,,
A (A=>4000%),< 3000 nM,"Cc1ccc(-c2cnc(N)c(C(=O)Nc3ccc(S(=O)(=O)CC4COC4)cc3)n2)cc1 [SU20668-0494, 3-amino-N-(4-(oxetan-3-ylmethylsulfonyl)phenyl)-6-p-tolylpyrazine-2-carboxamide]",,,
